One may read the IC50 as the concentration that gives 50% inhibition.

Here are results for one compound from paper PMC5855801, “Benzothiophenone Derivatives Targeting Mutant Forms of Estrogen Receptor-α in Hormone-Resistant Breast Cancers” (International Journal of Molecular Sciences, 2018).

One series relates to PC3 cells. The series is described as follows: Presto Blue cell viability assay, PC3. Format: cell-based, human. Particulars: PC3, 50 µM, 96 h. How it is done:
Cell viability was determined using the Presto Blue cell viability assay (Thermo Fisher Scientific, Waltham, MA, USA). Cells were seeded in clear bottom black-walled 96-well plates at a density of 5 × 10^3 cells/well in 100 μL of their respective media. On the following day, the cells were treated with test compounds (0.001–22.5 μM) in the presence of 1 nM E2 and incubated at 37 °C. After 96 h, 30 μL of Presto Blue reagent was added and incubated for 10 min at 37 °C. The fluorescent signal from viable cells was measured at 590 nm.
Supplementary Materials: Benzothiophenone Derivatives Targeting Mutant Forms of Estrogen Receptor-α in Hormone-Resistant Breast Cancers
Figure S1. Effect of VPC-16606 on viability of PC3 cells as measured in the Presto Blue assay. […]
Figure S2. TR-FRET Assay showing displacement of Fluorescein labelled PGC1 α peptide by VPC-16606 upon incubation with ER β-LBD. OHT was used at 1µM. Error bars represent standard deviation for two independent experiments performed in triplicates. […]

The target in another series is T1, ERα-LBD and SRC-3 (Homo sapiens, UniProt P03372).
T1 construct: generated by cloning the LBD of ERα into the pACT vector; expressed in transfected cells; host or cells: MDA-MB-231
T1 sequence (P03372 311-547 limits assumed): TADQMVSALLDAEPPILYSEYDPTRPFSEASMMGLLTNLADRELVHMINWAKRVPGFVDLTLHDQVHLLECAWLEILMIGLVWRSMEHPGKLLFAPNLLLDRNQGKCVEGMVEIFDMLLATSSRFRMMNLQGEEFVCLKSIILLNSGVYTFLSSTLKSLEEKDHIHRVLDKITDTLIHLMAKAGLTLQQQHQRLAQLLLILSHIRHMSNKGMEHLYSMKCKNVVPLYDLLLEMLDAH
As to the kind of experiment: Mammalian two-hybrid assay in MDA-MB-231 cells. Type of series: cell-based. Particulars: 1 nM E2, 24 h, read-out: IC50 for interaction between ERα-LBD and SRC-3 fusion proteins. How it is done:
The direct effect of VPC-16606 on ERα-co-activator recruitment was assessed by the mammalian two-hybrid system (Promega, Madison, WI, USA). MDA-MB-231 cells were transfected with pACT-ERα-LBD, pBIND-Steroid receptor coactivator protein-3 (pBIND-SRC-3), a luciferase reporter plasmid containing a GAL4 recognition sequence and a constitutively-active Renilla reporter plasmid. The cells were treated with a […] dilution of VPC-16606 starting at 50 µM.
For the mammalian two hybrid assay, the CheckMate^TM Mammalian Two-Hybrid System (Promega, Madison, WI, USA) was used. The pACT-ERα-LBD construct was generated by cloning the LBD of ERα into the pACT vector to produce the ERα-LBD protein fused to the VP16 activation domain. The SRC-3 coactivator peptide (aa 614–698) containing LXXLL (L, leucine; X, any amino acid) motifs 1 and 2 was cloned into the pBIND vector to generate the pBIND-SRC-3 construct expressing the SRC-3 protein fused to the GAL4-DNA binding domain. Full-length human ERα (hERαWT) was encoded on a pcDNA3.1 expression plasmid. Point mutations in the LBD were generated with the QuikChange mutagenesis kit (Stratagene, San Diego, CA, USA) using the hERαWT template. […]
MDA-MB-231 cells were seeded on 96-well plates (2 × 10^4 cells/well) in 150 µL of medium. […] After 24 h, the cells were lysed and luminescence was measured as for the luciferase transcriptional assay described above.

A further series deals with T2, ERα (Homo sapiens, UniProt P03372).
T2 construct: endogenous in cells; host or cells: T47DKBluc (ATCC CRL-2865)
T2 sequence (P03372 1-595): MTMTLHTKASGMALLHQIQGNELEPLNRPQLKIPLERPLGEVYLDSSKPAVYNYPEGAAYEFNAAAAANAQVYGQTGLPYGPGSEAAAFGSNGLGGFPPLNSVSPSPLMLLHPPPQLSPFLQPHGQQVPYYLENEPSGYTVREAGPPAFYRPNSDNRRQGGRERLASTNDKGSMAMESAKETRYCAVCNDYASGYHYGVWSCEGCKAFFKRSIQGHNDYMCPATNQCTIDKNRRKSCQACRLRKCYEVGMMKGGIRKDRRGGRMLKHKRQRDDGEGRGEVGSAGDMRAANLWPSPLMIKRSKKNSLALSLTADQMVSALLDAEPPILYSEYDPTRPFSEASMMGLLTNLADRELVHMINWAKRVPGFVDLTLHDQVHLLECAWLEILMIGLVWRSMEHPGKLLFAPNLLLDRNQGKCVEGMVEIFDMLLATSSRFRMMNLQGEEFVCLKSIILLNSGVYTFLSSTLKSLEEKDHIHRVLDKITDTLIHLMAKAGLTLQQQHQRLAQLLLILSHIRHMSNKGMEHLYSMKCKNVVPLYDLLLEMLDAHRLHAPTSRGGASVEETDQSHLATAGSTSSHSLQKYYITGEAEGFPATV
As to the kind of experiment: Estrogen-responsive luciferase reporter transcriptional assay in T47DKBluc cells. Type of series: cell-based. Particulars: 1 nM E2, 24 h, read-out: IC50 against ERα in the luciferase reporter-based transcriptional assay. How it is done: T47DKBluc cells (ATCC® CRL-2865^TM, Manassa, VA, USA) stably transfected with a 3X-ERE–promoter–luciferase reporter gene construct, pGL2.TATA.Inr.luc.neo [38], were used to measure inhibition of ERα-driven transcriptional activity of the luciferase reporter.
This assay was performed as described previously. Briefly, ERα-positive T47DKBluc cells were grown in phenol red-free RPMI 1640 supplemented with 10% CSS for 5 days. The cells were seeded on 96-well plates (2 × 10^4 cells/well). After 24 h, the cells were treated with test compounds in the presence of 1 nM E2. Twenty four hours post-treatment, the cells were lysed with 50 μL of 1× passive lysis buffer (Promega, Madison, WI, USA). Twenty microliters of the lysate from each treatment were transferred onto a white, 96-well, flat-bottomed plate (Corning Life Sciences, Corelle, NY, USA), and the luminescent signal was measured after adding 50 μL of the luciferase assay reagent (Promega, Madison, WI, USA) on a Tecan M200Pro microplate reader (Tecan, Menedorf, Switzerland). Differences in growth were normalised against total protein concentration, which was measured by the bicinchoninic acid (BCA) assay.

Each structure is given as a SMILES string.

Turning to `CC(=O)N(/N=C1\Sc2c(C)cccc2C1=O)c1ccccc1Cl` [VPC-16606], in the series on PC3 cells, the “Cell viability of PC3 cells” value was “affects cell viability”. For the same compound, the IC50 on ERα-LBD and SRC-3 was 800 nM; on ERα it was 300 nM.
